Patent US20090270359A1, “SUBSTITUTED PYRAZOLE DERIVATIVES” (TAKEDA PHARMACEUTICAL COMPANY LIMITED, priority 2007, published 2009)

Tested on: Human prostate cancer cells LNCaP-FGC
Assay: Prostate specific antigen (PSA) production inhibition test in prostate cancer cells
Type: cell-based
Settings: compound 1 μM; testosterone 0.1 ng/m; PSA in culture supernatant after 3 days by ELISA; testosterone non-addition group 100%, addition group 0%
Protocol: Human prostate cancer cells LNCaP-FGC were plated in a 24 well plate at 40000 cells/1000 μL/well, and testosterone (final concentration 0.1 ng/m) and the compound (1 μM) were added the next day. The concentration of PSA in the culture supernatant after 3 days from the addition was measured by ELISA, and the PSA production suppression rate was calculated with the testosterone non-addition group as 100% and the testosterone addition group as 0%.

CC(O)(CS(=O)(=O)c1ccc(F)cc1)C(=O)Nc1ccc(C#N)c(C(F)(F)F)c1 (stereo not shown) [bicartamide, reference compound]
Inhibitory rate (%) at 1 μM (PSA production suppression rate): 75.0%
